Entries after “also recorded” stand apart in the source; their conditions may differ.
Tests used:
Set-up in all cases: species or system rabbit
[1] = test system: RPE injury by laser photocoagulation in Dutch-belted rabbits; assay: In vivo laser injury model: fundus photos and OCT imaging; conditions: listed as LKI; for OCT appearance of RPE layer at laser spots compared to control / pigmentation of laser spots on fundus photos compared to control: intravitreal 50 μL of 15 mM
Description: Laser photocoagulation was used as a model for RPE injury in vivo. Prior to laser photocoagulation, Dutch-belted rabbits were sedated with ketamine and xylazine. Eyes were anesthetized with topical proparacaine and dilated with phenylephrine and tropicamide. Lubricating drops and gel were applied to prevent desiccation of the cornea.
To evaluate the effect of LATS kinase inhibition on the RPE injury response in vivo, following sedation and pharmacologic dilation, laser photocoagulation was delivered in a 6×6 grid pattern to both eyes with a 532 nm green laser (Iridex Corporation, Mountain View, CA, USA) mounted on an indirect ophthalmoscope. Power was set to 170 mW and pulse duration was set to 40 ms. Following the laser procedure, fundus photos of both eyes were obtained using a 28-diopter lens and smartphone. OCT images of both eyes were obtained on a SPECTRALIS (Heidelberg Engineering, Heidelberg, Germany) imaging system. Fundus photos and OCT images were again obtained at 1- and 4-week time points.
Dutch-belted rabbits were sedated and underwent photocoagulation of both eyes as described above, with the exception of lesion intensity alteration. Instead, laser power was held at 170 mW and pulse duration remained at 40 ms.
(§1) Following the laser procedure, the eyes were anesthetized once more with topical proparacaine. Povidone-iodine was applied to the conjunctiva or sclera using sterile Q-tips. Either 50 μL of 15 mM LATS kinase inhibitor (LKI), or vehicle control, was injected per eye using 1 mL Luer-lock syringe with a 27G 1½ inch needle. The second generation LKI, TDI-011536, was used as a micro-suspension formulation prepared in phosphate buffer solution (PBS; Sigma) supplemented with 0.5% carboxymethyl cellulose (Sigma) and 0.5% Kolliphor P 188 Bio (BASF Pharma). Intravitreal injections containing LKI were administered in the right eye and control injections were administered in the left eye. Injections were administered 1-2 mm posterior to the superotemporal or superonasal limbus and delivery of each compound was confirmed on indirect ophthalmoscopy.
To evaluate the effect of Lats kinase inhibition on the RPE injury response in vivo, 17 Dutch-belted rabbits received photocoagulation procedure to cause focal disruptions of the RPE and photoreceptor layers in a 6×6 grid of laser spots. Following photocoagulation, each animal received an intravitreal injection of 50 μL of 15 mM LKI in the right eye ([…]) and 50 μL vehicle in the left eye (n=17 eyes). Fundus photos and OCT imaging were performed immediately following the laser procedure and at 1- and 4-week time points. Three independent experiments were performed.

[2] = test system: RPE injury by laser photocoagulation in Dutch-belted rabbits; assay: In vivo laser injury model: retinal immunohistochemistry, quantification of cell proliferation; conditions: for percentage of Ki67+ cells in the choroid vs control (in words): 1- or 4-week time points
Protocol: as §1
Eyes used for immunofluorescence staining were processed according to a previously described protocol. Briefly, eyes were immediately placed in 50 mL 4% PFA in PBS on ice. After 15 minutes, eyes were removed from 4% PFA in PBS and the cornea and iris were removed under a dissecting microscope. With the cornea and iris removed, eyes were placed back in 50 mL 4% PFA and agitated overnight at 4° C. The following morning, the lens was removed. Eyes were then placed in 50 mL of 30% sucrose in PBS at 4° C. for cryoprotection. Once cryoprotection was complete, eyes were removed from 30% sucrose solution and embedded in optimal cutting temperature (OCT) compound.
Following embedding, eyes were mounted on a Leica cryostat (Leica Microsystems, Wetzlar, Germany) for sectioning. All retinal sections were 14 μm thickness and attached to a glass slide. A list of materials used can be found in Table 1.
To quantify RPE proliferation at the site of laser injury in vivo, regions 400 μm in width were centered on the outer nuclear layer (ONL) defect. Laser spots with ONL defects <30 μm in diameter, retinal detachments >225 μm, or an adjacent laser spot <200 μm away from the center of the ONL defect were excluded from analysis. Additionally, laser spots with significant tissue folding or tears were excluded. RPE cross-sectional area in μm^2 was obtained using the Wand Tool in QuPath using the RPE65 channel. RPE proliferation was quantified as the number of Ki67+ cells divided by DAPI+ cells within the RPE layer, expressed as a percentage. Choroidal proliferation was quantified as the number of Ki67+ cells divided by DAPI+ cells in the choroid.
To evaluate the effect of LKI on Müller glia at the site of injury, glial cell proliferation was quantified as the number of Ki67/Sox2 doubly positive cells divided by total number of Sox2/DAPI doubly positive cells within the 400 μm laser region, expressed as a percentage.
To evaluate the effect of LKI in undamaged retina, regions 400 μm in width in the peripheral retina were analyzed. The percentages of Ki67+ cells in the RPE layer, Ki67/Sox2 doubly positive cells, and Ki67+ cells in the choroid in unaffected regions were calculated in an identical fashion.
To further evaluate the effect of Lats kinase inhibition on the RPE injury response in vivo, eyes injected with LKI (n=9 eyes) or vehicle (n=8 eyes) from three independent experiments were cryosectioned and immunolabeled with Ki-67, a marker of cell proliferation. Additionally, sections were labeled with RPE65 to visualize RPE, Sox2 to visualize Müller glia, and Dapi to label all cell nuclei. […] RPE cross-sectional area was 14129±5605 μm^2 in LKI laser spots and 6221±914.2 μm^2 in control laser spots (P<0.0001). RPE maximal thickness was 56.36±19.23 μm in LKI laser spots and 23.08±8.46 μm in control laser spots (P<0.0001). Within the RPE layer, there was a significant increase in Ki67+ cells with LKI compared to the control (FIG. 5A, 5D). The percentage of Ki67+ RPE was 8.75±4.22% in LKI laser spots and 1.55±3.21% in control laser spots (P<0.001). […]

Dutch-belted rabbits = assay: Toxic effects / tolerability of intravitreal injection in vivo
Protocol: as §1

[3] = laser spots, 1 week, intravitreal 50 μL of 15 mM, mean±SD
[4] = laser spots, 1 week, listed as LKI

Compound: O=C(/N=c1\scc(CO)n1Cc1ccccc1)c1c[nH]c2ncccc12 [TDI-011536]
- OCT appearance of RPE layer at laser spots compared to control ([1]; 1 week after laser): thickening of the RPE layer with associated shadowing; also recorded: Shadowing (*) was common; also recorded: appeared thicker with increased shadowing
- pigmentation of laser spots on fundus photos compared to control ([1]; 1 week after laser): hyperpigmentation of laser spots; also recorded: increased pigmentation
- OCT appearance of RPE layer at laser spots compared to control ([1]; 4 weeks after laser): more pronounced; also recorded: Shadowing (*) was common; also recorded: significantly increased thickness of the RPE layer
- pigmentation of laser spots on fundus photos compared to control ([1]; 4 weeks after laser): more pronounced; also recorded: robust increase in pigmentation
- persistence of LKI microsuspension (depot) in the eye ([1]; rabbit eye, intravitreal 50 μL of 15 mM microsuspension): visible after 1 week; also recorded: up to a month
- Ki67+ (Sox2/Ki67 doubly positive) Müller glia in undamaged regions (outside of laser spots) ([2]; 1 week, listed as LKI): no Sox2/Ki67++ cells
- Ki67+ cells within the RPE layer in undamaged regions (outside of laser spots) ([2]; 1 week, listed as LKI): no Ki67+ RPE cells
- Ki67+ (Sox2/Ki67 doubly positive) Müller glia in undamaged regions ([2]; 4 weeks, listed as LKI): no Sox2/Ki67++ cells
- Ki67+ cells within the RPE layer in undamaged regions ([2]; 4 weeks, listed as LKI): no Ki67+ RPE cells
- percentage of Ki67+ cells in the choroid vs control (in words) ([2]; laser regions): no significant difference
- RPE cross-sectional area [2, 3]: 14129±5605 μm^2
- RPE maximal thickness [2, 3]: 56.36±19.23 μm
- Ki67+ Sox2+ cells (Müller glia) compared to control (in words) [2, 4]: Sox2+ and Ki67+Müller glia were observed; also recorded: significantly in increased
- RPE cross-sectional area compared to control (in words) [2, 4]: increase in underlying RPE cross-sectional area; also recorded: significantly increased
- percentage of Ki67+ RPE cells compared to control (in words) [2, 4]: increase; also recorded: significantly increased
- Ki67+ cells within the choroid ([2]; laser spots, 1 week, mean±SD): 6.66±5.37%
- percentage of Ki67+ RPE (Ki67+ cells within the RPE layer) ([2]; laser spots, 1 week, mean±SD): 8.75±4.22%
- percentage of Ki67+ Sox2+ cells (Müller glia) ([2]; laser spots, 1 week, mean±SD): 11.00±5.11%
- Ki67+ Sox2+ cells (Müller glia) compared to control (in words) ([2]; laser spots, 4 weeks): no significant difference
- RPE maximal thickness compared to control (in words) ([2]; laser spots, 4 weeks): increase in underlying RPE cross-sectional area and maximal thickness
- percentage of Ki67+ RPE cells compared to control (in words) ([2]; laser spots, 4 weeks): no significant difference
- RPE cross-sectional area ([2]; laser spots, 4 weeks, intravitreal 50 μL of 15 mM, mean±SD): 15800 ± 6530 µm²
- RPE cross-sectional area compared to control (in words) ([2]; laser spots, 4 weeks, listed as LKI): increase in RPE cross-sectional area; also recorded: significantly increased
- Ki67+ cells within the choroid ([2]; laser spots, 4 weeks, mean±SD): 0.39±0.71%
- percentage of Ki67+ RPE (Ki67+ cells within the RPE layer) ([2]; laser spots, 4 weeks, mean±SD): 0.29±0.90%
- percentage of Ki67+ Sox2+ cells (Müller glia) ([2]; laser spots, 4 weeks, mean±SD): 1.23±3.25%
- overall effect of intravitreal LKI microsuspension in the laser injury model (in words) ([2]; rabbits, intravitreal 50 μL of 15 mM microsuspension): extensive RPE proliferation and wound healing without measurable effects on off-target cell types or uninjured regions
- percentage of Ki67+ cells in the choroid vs control (in words) ([2]; undamaged regions): no significant difference
- tolerability of intravitreal injection (Dutch-belted rabbits; animal model): well-tolerated
- toxic effects in vivo (Dutch-belted rabbits; rabbit, in vivo): no toxic effects
